Reference: US4201725A, “Secondary amines” (priority 1974, dated 1980)

Legend:
in vivo = conditions: mouse, po
[1] = system: neuroleptic-induced catatonia; assay: Inhibition of neuroleptic (prochlorperazine)-induced catatonia (preventive); type: in vivo, rat (male, OFA strain); conditions: for activity relative to amantadine, neuroleptic-induced catatonia: times more active than amantadine
Description: The blocking of dopaminergic receptors by neuroleptics in the extra-pyramidal system induces catatonia in the rat. Catatonia is differentiated from sedative properties by means of the test used hereabove for reserpine-induced catatonia. The same system of scoring was also employed in the present case.
An oral dose of the compound to be studied in aqueous solution was administered to batches of 10 male rats of the OFA strain weighing about 150 to 200 g.
Three hours after the injection of this latter compound, catatonia was measured. An identical trial was also carried out with control animals which received prochlorperazine but none of the compounds under study.
The scoring system used was that given hereabove for Table I.

[2] = system: reserpine-induced catatonia; assay: Inhibition of reserpine-induced catatonia (preventive, oral compound 30 min before reserpine); type: in vivo, rat (male, OFA strain)
Description: After sufficient doses of reserpine have been administered to the rat, a series of symptoms occur, more particularly ptosis, catatonia and a drop in central temperature. These symptoms are caused by the depletion of the intragranular reserve pool of biogenetic amines at the synaptic terminals.
An oral dose of the compound to be studied in aqueous solution was administered to batches of 10 male rats of the OFA strain weighing about 150 to 200 g. Thirty minutes later a dose of 5 mg/kg of reserpine was given by intraperitoneal route. Three hours after the injection of reserpine, the animals were suspended by the four paws to a horizontally stretched wire fixed at 15 cm from the ground. The catatonia animals were those which maintained the position so given for at least 30 seconds. […] The maximum score was therefore 10 per batch. An identical trial was undertaken with control animals which received reserpine but none of the compounds being studied.

CCCC(N)(CC)CCC [Compound 2, 1-Ethyl-1-n-propyl-n-butylamine]
selectivity ratio (in vivo): 30
Inhibition of the neuroleptic-induced catatonia ([1]; 5 mg/kg oral): 1 (represents 20 to 30% inhibition of catatonia in comparison with the controls)

CCCC(N)(CC)CC(C)C (centres unmarked) [Compound 3, 1-Ethyl-1-isobutyl-n-butylamine]
Inhibition of the neuroleptic-induced catatonia ([1]; 20 mg/kg oral): 3 (represents 70 to 80% inhibition of catatonia in comparison with the controls)

CCCC(N)(CCC)CC(C)C [Compound 5, 1-n-Propyl-1-isobutyl-n-butylamine]
activity relative to amantadine, neuroleptic-induced catatonia [1]: five times more active
Inhibition of reserpine-induced catatonia ([2]; 20 mg/kg oral): 2 (represents 50% inhibition of catatonia in comparison with the controls)

CCCC(C)(N)CC(C)CC (centres unmarked) [Compound 6, 1,3-Dimethyl-1-n-propyl-n-pentylamine]
selectivity ratio (in vivo): > 25

CCCCC(C)(N)CC(C)C (centres unmarked) [Compound 8, 1-Methyl-1-isobutyl-n-pentylamine]
activity relative to amantadine, neuroleptic-induced catatonia [1]: twice as active

CCCCCC(C)(N)CCC (centres unmarked) [Compound 9, 1-Methyl-1-n-propyl-n-hexylamine]
selectivity ratio (in vivo): 87

CCCCC(C)CC(C)(C)N (centres unmarked) [Compound 13, 1,1,3-Trimethyl-n-heptylamine]
Inhibition of the neuroleptic-induced catatonia ([1]; 50 mg/kg oral): 1 (represents 20 to 30% inhibition of catatonia in comparison with the controls)
Inhibition of reserpine-induced catatonia ([2]; 25 mg/kg oral): 1 (represents 20 to 30% inhibition of catatonia in comparison with the controls)

CCCC(N)(CCC)CC(C)C [Compound 19, 1-n-Propyl-1-isobutyl-n-butylamine]
Inhibition of the neuroleptic-induced catatonia ([1]; 6 mg/kg oral): 3 (represents 70 to 80% inhibition of catatonia in comparison with the controls)
Inhibition of reserpine-induced catatonia ([2]; 6 mg/kg oral): 3 (represents 70 to 80% inhibition of catatonia in comparison with the controls)

CCCC(CCC)(CCC)N(C)C [Compound 28, N,N-Dimethyl-1,1-di-n-propyl-n-butylamine]
Inhibition of the neuroleptic-induced catatonia ([1]; 3 mg/kg oral): 2 (represents 50% inhibition of catatonia in comparison with the controls)
Inhibition of the neuroleptic-induced catatonia ([1]; 6 mg/kg oral): 4 (represents 100% inhibition of catatonia in comparison with the controls)
Inhibition of reserpine-induced catatonia ([2]; 6 mg/kg oral): 4 (represents 100% inhibition of catatonia in comparison with the controls)

CCCC(CCC)(CCC)N1CCC1 [Compound 29, N,N-Trimethylene-1,1-di-n-propyl-n-butylamine]
selectivity ratio (in vivo): 10.8
Inhibition of the neuroleptic-induced catatonia ([1]; 3 mg/kg oral): 2 (represents 50% inhibition of catatonia in comparison with the controls)
Inhibition of the neuroleptic-induced catatonia ([1]; 6 mg/kg oral): 4 (represents 100% inhibition of catatonia in comparison with the controls)
Inhibition of reserpine-induced catatonia ([2]; 3 mg/kg oral): 3 (represents 70 to 80% inhibition of catatonia in comparison with the controls)
Inhibition of reserpine-induced catatonia ([2]; 6 mg/kg oral): 4 (represents 100% inhibition of catatonia in comparison with the controls)

CCCC(CCC)(CC(C)C)NC [Compound 31, N-Methyl-1-n-propyl-1-isobutyl-n-butylamine]
Inhibition of the neuroleptic-induced catatonia ([1]; 6.5 mg/kg oral): 4 (represents 100% inhibition of catatonia in comparison with the controls)
Inhibition of reserpine-induced catatonia ([2]; 6.5 mg/kg oral): 3 (represents 70 to 80% inhibition of catatonia in comparison with the controls)

CCCC(CCC)(CCC)NCC [Compound 33, N-Ethyl-1,1-di-n-propyl-n-butylamine]
selectivity ratio (in vivo): 16.5
Inhibition of the neuroleptic-induced catatonia ([1]; 6 mg/kg oral): 4 (represents 100% inhibition of catatonia in comparison with the controls)
Inhibition of reserpine-induced catatonia ([2]; 6 mg/kg oral): 2 (represents 50% inhibition of catatonia in comparison with the controls)

CCCC(CCC)(CCC)NC(C)C [Compound 34, N-Isopropyl-1,1-di-n-propyl-n-butylamine]
selectivity ratio (in vivo): 21.6
Inhibition of the neuroleptic-induced catatonia ([1]; 3 mg/kg oral): 2 (represents 50% inhibition of catatonia in comparison with the controls)
Inhibition of the neuroleptic-induced catatonia ([1]; 6.5 mg/kg oral): 4 (represents 100% inhibition of catatonia in comparison with the controls)
Inhibition of reserpine-induced catatonia ([2]; 6.5 mg/kg oral): 2 (represents 50% inhibition of catatonia in comparison with the controls)
Inhibition of reserpine-induced catatonia ([2]; 13 mg/kg oral): 4 (represents 100% inhibition of catatonia in comparison with the controls)

C=CCNC(CCC)(CCC)CCC [Compound 35, N-Allyl-1,1-di-n-propyl-n-butylamine]
selectivity ratio (in vivo): 21
Inhibition of the neuroleptic-induced catatonia ([1]; 6 mg/kg oral): 4 (represents 100% inhibition of catatonia in comparison with the controls)
Inhibition of reserpine-induced catatonia ([2]; 6 mg/kg oral): 2 (represents 50% inhibition of catatonia in comparison with the controls)

CCCC(CCC)(CC(C)C)N(C)C [Compound 37, N,N-Dimethyl-1-n-propyl-1-isobutyl-n-butylamine]
Inhibition of the neuroleptic-induced catatonia ([1]; 6.5 mg/kg oral): 2 (represents 50% inhibition of catatonia in comparison with the controls)
Inhibition of reserpine-induced catatonia ([2]; 6.5 mg/kg oral): 3 (represents 70 to 80% inhibition of catatonia in comparison with the controls)

CCCC(CCC)(CCC)N(C)CC [Compound 38, N-Methyl-N-ethyl-1,1-di-n-propyl-n-butylamine]
Inhibition of the neuroleptic-induced catatonia ([1]; 6.5 mg/kg oral): 2 (represents 50% inhibition of catatonia in comparison with the controls)
Inhibition of reserpine-induced catatonia ([2]; 6.5 mg/kg oral): 2 (represents 50% inhibition of catatonia in comparison with the controls)

C#CCN(CC#C)C(CCC)(CCC)CCC [Compound 39, N,N-Dipropargyl-1,1-di-n-propyl-n-butylamine]
Inhibition of reserpine-induced catatonia ([2]; 15 mg/kg oral): 2 (represents 50% inhibition of catatonia in comparison with the controls)

CCCC(CCC)(CCC)N1CC1 [Compound 40, N,N-Ethylene-1,1-di-n-propyl-n-butylamine]
selectivity ratio (in vivo): > 25
Inhibition of the neuroleptic-induced catatonia ([1]; 6 mg/kg oral): 1 (represents 20 to 30% inhibition of catatonia in comparison with the controls)
Inhibition of the neuroleptic-induced catatonia ([1]; 12 mg/kg oral): 3 (represents 70 to 80% inhibition of catatonia in comparison with the controls)
Inhibition of reserpine-induced catatonia ([2]; 6 mg/kg oral): 2 (represents 50% inhibition of catatonia in comparison with the controls)

C=NC(CCC)(CCC)CCC [Compound 41, N-Methylene-1,1-di-n-propyl-n-butylamine]
selectivity ratio (in vivo): 27
Inhibition of the neuroleptic-induced catatonia ([1]; 5.5 mg/kg oral): 3 (represents 70 to 80% inhibition of catatonia in comparison with the controls)
Inhibition of reserpine-induced catatonia ([2]; 5.5 mg/kg oral): 4 (represents 100% inhibition of catatonia in comparison with the controls)

CC=NC(CCC)(CCC)CCC [Compound 42, N-Ethylidene-1,1-di-n-propyl-n-butylamine]
selectivity ratio (in vivo): 20
Inhibition of the neuroleptic-induced catatonia ([1]; 6 mg/kg oral): 2 (represents 50% inhibition of catatonia in comparison with the controls)
Inhibition of reserpine-induced catatonia ([2]; 6 mg/kg oral): 4 (represents 100% inhibition of catatonia in comparison with the controls)

CCCC(CCC)(CCC)N(CCO)CCO [Compound 44, N,N-bis-(2-Hydroxyethyl)-1,1-di-n-propyl-n-butylamine]
Inhibition of the neuroleptic-induced catatonia ([1]; 15 mg/kg oral): 1 (represents 20 to 30% inhibition of catatonia in comparison with the controls)
Inhibition of reserpine-induced catatonia ([2]; 15 mg/kg oral): 1 (represents 20 to 30% inhibition of catatonia in comparison with the controls)

CCCC(CCC)(CCC)NCCCO [Compound 45, N-(3-Hydroxy-n-propyl)-1,1-di-n-propyl-n-butylamine]
Inhibition of the neuroleptic-induced catatonia ([1]; 7 mg/kg oral): 2 (represents 50% inhibition of catatonia in comparison with the controls)
Inhibition of reserpine-induced catatonia ([2]; 14 mg/kg oral): 2 (represents 50% inhibition of catatonia in comparison with the controls)

CCCNC(CCC)(CCC)CCC [Compound 47, N-n-propyl-1,1-di-n-propyl-n-butylamine]
Inhibition of the neuroleptic-induced catatonia ([1]; 6.5 mg/kg oral): 2 (represents 50% inhibition of catatonia in comparison with the controls)
